From patent US8986946B2, “Real-time method for the detection of viable micro-organisms” (Nederlandse Organisatie Voor …, priority 2007, dated 2015)

Tests used:
[1] = test system: Staphylococcus aureus ATCC 6538; assay: Real-time viability assay, uptake of the phototautomeric compound followed by fluorescence; type: cell-based; conditions: for uptake by bacteria: 50 μM compound in 100 mM potassium phosphate buffer pH 2 (FIG. 6); for rise in fluorescence after addition of the compound, viable vs nonviable cells: 50 μM compound, 100 mM potassium phosphate buffer pH 2, added at t=20 seconds
Procedure: (§1) A solution of 100 μl containing 50 μM compound in 100 mM potassium phosphate buffer pH 7 is used for recording the excitation and emission wavelengths in a Tecan microplate fluorometer. The ratio of emission intensity at pH 7.5 and 1 as well as the ratio of emission intensity at pH 7 and 2 (indicated by the asterisk) was recorded with 100 μl solution containing 50 μM compound in 100 mM potassium phosphate buffer pH 2 or 7 in a Tecan microplate fluorometer at optimal excitation wavelength. Uptake of compounds by viable and nonviable (heat-inactivated for 5 minutes at 95° C.) Staphylococcus aureus ATCC 6538 and Sachromyces serervisiae ATCC 9763 cells is real-time monitored in a Tecan microplate fluorometer at optimal excitation and emission wavelengths. A solution of 50 μM compound in 100 mM potassium phosphate buffer pH2 was added to 100 μl cell suspensions at t=20 seconds, uptake of compound was monitored for 180 seconds.
(§2) A solution of 100 μl containing 50 μM o-hydroxycinnamic acid, 100 mM potassium phosphate buffer pH 2, was added at t=20 seconds, as indicated by the arrow.
(§3) Typical real-time viability assay. Staphylococcus aureus strain ATCC 6538 is cultured overnight at 100 RPM at 37° C. in 10-ml of a rich trypticase soy broth (TSB) medium. A culture volume of 5 ml is centrifuged at 2000 RPM for 10 min and resuspended in 2 ml of physiological salt solution (peptone, 0.9% NaCl) followed by an OD600 measurement. A culture suspension of 1 ml is heat-inactivated by incubation at 95° C. for 5 min. (nonviable control cell suspension). A volume of 100 μl of a viable and a nonviable cell suspension is pipetted in separate wells of a polystyrene 96-well, flat-bottom microtiter plate. Subsequently, fluorescence emission kinetics (excitation wavelength 290 nm; emission wavelength 402 nm) are monitored for 500 seconds with a time interval of 200 ms, number of reads 5. […] Hereafter, the fluorescence signal decays on a minute time-scale as a result of the loss of membrane integrity or cell viability. […] From 60.2 seconds the signal will remain constant as the membrane is permeable in nonviable cells allowing quenching of fluorescence by acidification of the intracellular environment.

[2] = test system: yeast (and other fungal) strains: Candida albicans ATCC 10231, Saccharomyces cereuisiae ATCC9763; assay: Real-time viability assay for various micro-organisms (yeast strains); type: cell-based, Saccharomyces cerevisiae; conditions: 100 mM potassium phosphate buffer pH 2
Procedure: as §3, with “environment. Real-time viability assay for various micro-organisms. Bacterial and yeast strains were cultured overnight at 37° C. at 100 RPM in 10-ml of a rich trypticase soy broth (TSB) medium. A culture volume of 5 ml is centrifuged at 2000 RPM for 10 min and resuspended in 2 ml of physiological salt solution (peptone, 0.9% NaCl) followed by an OD600 measurement. The yeast strains include Candida albicans ATCC 10231, Saccharomyces cereuisiae ATCC9763 and the bacterial strains include A Staphylococcus aureus strain ATCC 6538, Enterobacter cloacae LMG 2783, Escherichia coli ATCC 10536, Bacillus subtilis DSM618 and Pseudomonas aeruginosa ATCC27853. The assay is carried out as specified above for Staphylococcus aureus. […] Accordingly, quantification of the number of viable cells of the yeast and other fungal strains should occur on the basis of increase of fluorescence over the measured period of time.” for “environment.”

[3] = test system: Saccharomyces cerevisiae ATCC 9763; assay: Real-time viability assay, uptake of the phototautomeric compound followed by fluorescence; type: cell-based; conditions: for uptake by yeast: 50 μM compound in 100 mM potassium phosphate buffer pH 2 (FIG. 6)
Procedure: as §1, §2
Real-time viability assay for various micro-organisms. Bacterial and yeast strains were cultured overnight at 37° C. at 100 RPM in 10-ml of a rich trypticase soy broth (TSB) medium. A culture volume of 5 ml is centrifuged at 2000 RPM for 10 min and resuspended in 2 ml of physiological salt solution (peptone, 0.9% NaCl) followed by an OD600 measurement. The yeast strains include Candida albicans ATCC 10231, Saccharomyces cereuisiae ATCC9763 and the bacterial strains include A Staphylococcus aureus strain ATCC 6538, Enterobacter cloacae LMG 2783, Escherichia coli ATCC 10536, Bacillus subtilis DSM618 and Pseudomonas aeruginosa ATCC27853. The assay is carried out as specified above for Staphylococcus aureus. […] Accordingly, quantification of the number of viable cells of the yeast and other fungal strains should occur on the basis of increase of fluorescence over the measured period of time.

[4] = test system: Saccharomyces cerevisiae ATCC 9763; assay: as above; type: cell-based; conditions: 2 mM salicylic acid, pH 2

O=C(O)c1ccc2ccccc2c1O [1H-2NA, 1-hydroxy-2-naphtoic acid]
uptake by bacteria [1]: taken up by both bacteria and yeast | accumulation of the compound by yeast (and other fungal) strains [2]: relatively slowly | decay of fluorescent signal in yeast (and other fungal) strains [2]: no decay of fluorescent signal | uptake by yeast [3]: taken up by both bacteria and yeast

O=C(O)c1c(O)ccc2ccccc12 [2H-1NA, 2-hydroxy-1-naphtoic acid]
accumulation of the compound by yeast (and other fungal) strains [2]: relatively slowly | decay of fluorescent signal in yeast (and other fungal) strains [2]: no decay of fluorescent signal

Nc1cc2ccccc2cc1C(=O)O [3-amino-2-napthoic acid]
uptake by bacteria [1]: taken up by both bacteria and yeast | uptake by yeast [3]: taken up by both bacteria and yeast

Nc1ccc(C(=O)O)c(O)c1 [4-amino salicylic acid]
uptake by yeast [3]: hardly taken up by yeast

O=C(O)c1ccc(O)cc1O [4-hydroxy salicylic acid]
uptake by yeast [3]: hardly taken up by yeast

Nc1ccc(O)c(C(=O)O)c1 [5-amino salicylic acid]
uptake by yeast [3]: hardly taken up by yeast

Cn1c(=O)n(C)c2cc(C(=O)O)c(N)cc21 [6-amino-1,3-dimethyl-2-oxo-2,3-dihydro-1H-benzoimidazole-5-carboxylic acid]
rise in fluorescence after addition of the compound, viable vs nonviable cells ([3]; 50 μM compound, 100 mM potassium phosphate buffer pH 2, added at t=20 seconds): only observed for viable Saccharomyces cereuisiae cells

O=C(O)c1cc2oc3ccccc3c2cc1O [S350729]
uptake by bacteria [1]: taken up by both bacteria and yeast | uptake by yeast [3]: taken up by both bacteria and yeast

O=C(O)c1cc(O)ccc1O [gentisic acid, 2,5-dihydroxybenzoic acid]
rise in fluorescence after addition of the compound, viable vs nonviable cells [1]: only observed for viable Staphylococcus aureus cells

O=C(O)C=Cc1ccccc1O [o-hydroxycinnamic acid]
rise in fluorescence after addition of the compound, viable vs nonviable cells [1]: only observed for viable Staphylococcus aureus cells | uptake by yeast [3]: hardly taken up by yeast

O=C(O)c1ccccc1O [salicylic acid]
uptake by bacteria [1]: taken up by both bacteria and yeast | time constant of the acidification process ([1]; 2 mM salicylic acid, 100 mM potassium phosphate buffer pH 2): 0.005 s⁻¹ | time scale of the rapid rise in fluorescence (transfer from the extracellular to the intracellular medium) ([1]; 100 μl of 2 mM salicylic acid, 100 mM potassium phosphate buffer pH 2, injected at 60 seconds): < 200 ms | uptake of salicylic acid by the bacteria (time) ([1]; stationary culture, 2 mM salicylic acid, 100 mM potassium phosphate buffer pH 2): within seconds | permeability of the cell membrane to the compound, compared with bacteria [4]: less-permeable | accumulation of the compound by yeast (and other fungal) strains [2]: relatively slowly | decay of fluorescent signal in yeast (and other fungal) strains [2]: no decay of fluorescent signal | uptake by yeast [3]: taken up by both bacteria and yeast
